Source: ChEMBL document CHEMBL4229524, “Design, synthesis and preclinical evaluation of 5-methyl-N4-aryl-furo[2,3-d]pyrimidines as single agents with combination chemotherapy potential” (Bioorg Med Chem Lett, 2018)

Tests used:
[1] = biological target: Epidermal growth factor receptor (Homo sapiens, UniProt P00533); format: cell-based
[2] = biological target: Vascular endothelial growth factor receptor 2 (Homo sapiens, UniProt P35968); format: cell-based
[3] = biological target: Platelet-derived growth factor receptor beta (Homo sapiens, UniProt P09619); experiment: Inhibition of PDGF-BB-induced PDGFRbeta activation in human SH-SY5Y cells pretreated for 60 mins followed by PDGF-BB addition and measured after 10 mins by ELISA; format: cell-based
A-431 = experiment: Cytotoxicity against human A431 cells over-expressing EGFR; format: functional, cell-based
Chorioallantoic membrane [4] = experiment: Antiangiogenic activity in Leghorn chicken embryo chorioallantoic membrane after 40 hrs by microscopic analysis; format: functional, tissue-based; conditions: Gallus gallus
Chorioallantoic membrane [5] = experiment: Potency index, ratio of sunitinib IC50 to test compound IC50 for antiangiogenic activity in Leghorn chicken embryo chorioallantoic membrane; format: functional, tissue-based; conditions: Gallus gallus
A10 = experiment: Induction of microtubule depolymerization in rat A10 cells after 18 hrs by indirect immunofluorescence method; format: functional, cell-based; conditions: A10, 18 h

Sequence of Epidermal growth factor receptor (P00533 whole entry): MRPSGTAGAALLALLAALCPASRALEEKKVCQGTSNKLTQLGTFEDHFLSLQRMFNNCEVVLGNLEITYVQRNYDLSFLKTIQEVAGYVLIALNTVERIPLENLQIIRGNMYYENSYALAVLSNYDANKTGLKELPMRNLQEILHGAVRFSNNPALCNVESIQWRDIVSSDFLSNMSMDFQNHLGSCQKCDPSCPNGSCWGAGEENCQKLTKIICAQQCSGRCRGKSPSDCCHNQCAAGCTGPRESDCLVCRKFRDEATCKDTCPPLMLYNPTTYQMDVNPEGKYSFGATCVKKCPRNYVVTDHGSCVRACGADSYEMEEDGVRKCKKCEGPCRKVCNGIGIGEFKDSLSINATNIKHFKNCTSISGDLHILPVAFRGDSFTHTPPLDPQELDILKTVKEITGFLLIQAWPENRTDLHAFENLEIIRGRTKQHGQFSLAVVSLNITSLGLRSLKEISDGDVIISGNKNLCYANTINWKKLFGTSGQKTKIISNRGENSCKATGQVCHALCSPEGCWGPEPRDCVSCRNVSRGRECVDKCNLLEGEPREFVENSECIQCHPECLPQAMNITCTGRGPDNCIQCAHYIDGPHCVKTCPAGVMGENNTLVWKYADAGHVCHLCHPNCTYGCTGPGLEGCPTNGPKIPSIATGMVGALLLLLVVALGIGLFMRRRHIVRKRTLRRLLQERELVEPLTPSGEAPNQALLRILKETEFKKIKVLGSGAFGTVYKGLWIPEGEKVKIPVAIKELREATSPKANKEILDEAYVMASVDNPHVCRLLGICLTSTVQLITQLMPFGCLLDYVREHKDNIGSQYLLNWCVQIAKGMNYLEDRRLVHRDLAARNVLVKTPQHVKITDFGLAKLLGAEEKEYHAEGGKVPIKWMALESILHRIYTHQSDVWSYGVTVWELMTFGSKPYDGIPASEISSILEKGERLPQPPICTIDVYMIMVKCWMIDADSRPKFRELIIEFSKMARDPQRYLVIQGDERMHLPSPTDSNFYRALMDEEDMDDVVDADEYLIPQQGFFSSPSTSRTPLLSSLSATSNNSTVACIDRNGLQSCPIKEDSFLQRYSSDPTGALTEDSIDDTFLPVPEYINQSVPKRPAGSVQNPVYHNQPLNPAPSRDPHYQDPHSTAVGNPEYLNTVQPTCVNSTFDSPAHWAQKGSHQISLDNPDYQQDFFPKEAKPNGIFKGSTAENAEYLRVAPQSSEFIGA
Sequence of Platelet-derived growth factor receptor beta (P09619 whole entry): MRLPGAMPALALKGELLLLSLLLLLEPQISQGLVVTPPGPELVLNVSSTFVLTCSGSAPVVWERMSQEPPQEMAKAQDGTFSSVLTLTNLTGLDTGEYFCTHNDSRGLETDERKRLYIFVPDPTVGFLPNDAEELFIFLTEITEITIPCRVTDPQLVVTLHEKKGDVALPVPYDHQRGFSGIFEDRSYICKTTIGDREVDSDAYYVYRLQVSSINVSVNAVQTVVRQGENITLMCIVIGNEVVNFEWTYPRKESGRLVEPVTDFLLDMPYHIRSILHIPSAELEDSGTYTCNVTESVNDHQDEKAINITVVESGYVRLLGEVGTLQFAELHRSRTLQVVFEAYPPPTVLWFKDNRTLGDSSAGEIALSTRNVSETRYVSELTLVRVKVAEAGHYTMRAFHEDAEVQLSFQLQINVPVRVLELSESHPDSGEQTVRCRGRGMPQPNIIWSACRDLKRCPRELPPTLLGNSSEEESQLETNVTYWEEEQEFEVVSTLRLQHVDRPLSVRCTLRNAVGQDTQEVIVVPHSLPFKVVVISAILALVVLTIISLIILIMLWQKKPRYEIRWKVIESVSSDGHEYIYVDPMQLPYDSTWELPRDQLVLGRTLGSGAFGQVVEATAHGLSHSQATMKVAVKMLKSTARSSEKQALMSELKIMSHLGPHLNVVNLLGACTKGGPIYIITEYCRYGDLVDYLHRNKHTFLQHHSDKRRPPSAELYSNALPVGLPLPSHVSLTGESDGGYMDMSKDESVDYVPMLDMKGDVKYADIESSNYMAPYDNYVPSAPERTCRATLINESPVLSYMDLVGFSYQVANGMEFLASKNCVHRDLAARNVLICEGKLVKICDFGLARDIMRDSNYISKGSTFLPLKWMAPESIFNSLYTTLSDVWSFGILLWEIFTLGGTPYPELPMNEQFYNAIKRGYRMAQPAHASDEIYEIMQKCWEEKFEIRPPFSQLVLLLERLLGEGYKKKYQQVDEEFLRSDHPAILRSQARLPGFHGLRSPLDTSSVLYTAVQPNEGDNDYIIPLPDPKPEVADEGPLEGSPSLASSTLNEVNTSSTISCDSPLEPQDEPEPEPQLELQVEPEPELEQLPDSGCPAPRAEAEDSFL
Sequence of Vascular endothelial growth factor receptor 2 (P35968 whole entry): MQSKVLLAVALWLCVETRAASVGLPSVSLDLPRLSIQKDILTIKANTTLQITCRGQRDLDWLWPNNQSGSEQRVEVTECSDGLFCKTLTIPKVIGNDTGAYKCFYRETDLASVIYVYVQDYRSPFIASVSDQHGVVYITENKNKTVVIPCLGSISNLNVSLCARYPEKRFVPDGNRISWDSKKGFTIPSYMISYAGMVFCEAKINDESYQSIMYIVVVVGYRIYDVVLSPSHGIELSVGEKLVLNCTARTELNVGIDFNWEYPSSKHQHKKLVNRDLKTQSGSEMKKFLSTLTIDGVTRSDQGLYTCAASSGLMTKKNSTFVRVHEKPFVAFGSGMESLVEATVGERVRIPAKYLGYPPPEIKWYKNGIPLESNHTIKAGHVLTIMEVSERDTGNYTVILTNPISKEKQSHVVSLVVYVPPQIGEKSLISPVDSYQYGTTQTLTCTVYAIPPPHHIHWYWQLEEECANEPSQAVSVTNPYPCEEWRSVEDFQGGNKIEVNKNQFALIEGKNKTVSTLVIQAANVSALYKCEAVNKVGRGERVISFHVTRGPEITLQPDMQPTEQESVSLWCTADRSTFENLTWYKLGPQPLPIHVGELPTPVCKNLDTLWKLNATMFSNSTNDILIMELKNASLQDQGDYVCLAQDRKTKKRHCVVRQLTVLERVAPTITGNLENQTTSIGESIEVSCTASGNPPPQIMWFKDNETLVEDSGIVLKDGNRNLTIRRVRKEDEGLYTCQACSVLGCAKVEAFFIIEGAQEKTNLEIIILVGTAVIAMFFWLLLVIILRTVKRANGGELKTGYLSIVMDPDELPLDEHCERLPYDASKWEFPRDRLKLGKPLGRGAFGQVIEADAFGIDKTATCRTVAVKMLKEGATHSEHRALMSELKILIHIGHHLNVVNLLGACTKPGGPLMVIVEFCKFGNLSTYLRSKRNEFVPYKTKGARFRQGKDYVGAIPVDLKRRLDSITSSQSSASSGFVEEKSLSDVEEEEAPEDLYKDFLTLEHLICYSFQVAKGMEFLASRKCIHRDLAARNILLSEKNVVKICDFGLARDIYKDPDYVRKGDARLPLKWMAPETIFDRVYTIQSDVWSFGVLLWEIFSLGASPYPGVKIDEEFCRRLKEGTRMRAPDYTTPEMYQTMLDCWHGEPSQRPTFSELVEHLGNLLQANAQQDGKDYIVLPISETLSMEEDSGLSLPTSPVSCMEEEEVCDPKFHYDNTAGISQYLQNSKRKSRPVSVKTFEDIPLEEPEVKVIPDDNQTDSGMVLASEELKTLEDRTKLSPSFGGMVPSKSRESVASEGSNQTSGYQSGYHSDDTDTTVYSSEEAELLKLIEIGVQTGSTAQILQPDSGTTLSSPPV

Row | Structure (SMILES) | IC50 [1] [nM] | IC50 [2] [nM] | IC50 [3] [nM] | IC50 (A-431) [nM] | IC50 (Chorioallantoic membrane [4]) [nM] | Ratio IC50 (Chorioallantoic membrane [5]) | EC50 (A10) [nM]
1 | CCc1ccc(N(C)c2ncnc3occ(C)c23)cc1 | 4 | 7.8 | 28.9 | 1.4 | 287 | 4 | –
2 | COc1ccc(Nc2ncnc3occ(C)c23)cc1 | 283 | 38.1 | 57.3 | 292 | 445 | – | –
3 | COc1ccc(/C=C\c2cc(OC)c(OC)c(OC)c2)cc1O [COMBRETASTATIN A4] | – | – | – | – | – | – | 9.8
4 | Cc1coc2ncnc(Nc3ccc([N+](=O)[O-])cc3)c12 | > 200 | > 200 | > 200 | – | – | – | > 10000
